# Experimental data from patent publication EP1680415B1, “PYRROLIDINYL UREA DERIVATIVES AS ANGIOGENESIS INHIBITORS” (ABBOTT LABORATORIES, priority 2003, dated 2005).
# System: HMVEC
# Experiment: human microvascular endothelial (HMVEC) migration assay
# Type: cell-based
# Conditions: Homo sapiens; Inhibition of HMVEC migration; 0.01 nM; activators 15 ng/mL bFGF/VEGF; 4 hours at 37 °C; compared to a positive control
# Description: The human microvascular endothelial (HMVEC) migration assay was run according to the procedure of S. S. Tolsma, O. V. Volpert, D. J. Good, W. F. Frazier, P. J. Polverini and N. Bouck, J. Cell Biol. 122, 497-511 (1993).
# The HMVEC migration assay was carried out using Human Microvascular Endothelial Cells-Dermal (single donor) and Human Microvascular Endothelial Cells, (neonatal). The BCE or HMVEC cells were starved overnight in DME containing 0.01% bovine serum albumin (BSA). Cells were then harvested with trypsin and resuspended in DME with 0.01 % BSA at a concentration of 1.5 X 10^6 cells per mL. Cells were added to the bottom of a 48 well modified Boyden chamber (Nucleopore Corporation, Cabin John, MD). The chamber was assembled and inverted, and cells were allowed to attach for 2 hours at 37 °C to polycarbonate chemotaxis membranes (5 µm pore size) that had been soaked in 0.01 % gelatin overnight and dried. The chamber was then reinverted, and test substances (total volume of 50 µL), including activators, 15 ng/mL bFGF/VEGF, were added to the wells of the upper chamber. The apparatus was incubated for 4 hours at 37 °C. Membranes were recovered, fixed and stained (Diff Quick, Fisher Scientific) and the number of cells that had migrated to the upper chamber per 3 high power fields counted. Background migration to DME + […] was subtracted and the data reported as the number of cells migrated per 10 high power fields (400X) or, when results from multiple experiments were combined, as the percent inhibition of migration compared to a positive control.
row,Compound,inhibition at 10 pM
1,"Cc1ccc(C(=O)N2CC[C@@H](NC(=O)N3CCN(c4ccccn4)CC3)C2)cn1 [Example 90, N-{(3R)-1-[(6-methylpyridin-3-yl)carbonyl]pyrrolidin-3-yl}-4-pyridin-2-ylpiperazine-1-carboxamide]",52%

# Same assay, conditions: Homo sapiens; Inhibition of HMVEC migration; 0.1 nM; activators 15 ng/mL bFGF/VEGF; 4 hours at 37 °C; compared to a positive control
row,Compound,inhibition at 0.0001 µM
1,"Cc1ccc(C(=O)N2CC[C@@H](NC(=O)N[C@@H](CO)c3ccccc3)C2)cn1 [Example 32, N-[(1R)-2-hydroxy-1-phenylethyl]-N'-{(3R)-1-[(6-methyl-3-pyridinyl)carbonyl]-3-pyrrolidinyl} urea]",85%
2,"Cc1ccc(C(=O)N2CC[C@@H](NC(=O)N(CCC#N)C3CC3)C2)cn1 [Example 67, N-(2-cyanoethyl)-N-cyclopropyl-N'-{(3R)-1-[(6-methylpyridin-3-yl)carbonyl]pyrrolidin-3-yl}urea]",73%
3,"Cc1ccc(C(=O)N2CC[C@@H](NC(=O)N3CCN(C4CCCCC4)CC3)C2)cn1 [Example 78, 4-cyclohexyl-N-{(3R)-1-[(6-methylpyridin-3-yl)carbonyl]pyrrolidin-3-yl}piperazine-1-carboxamide]",67%
4,"CCCN(C)C(=O)N[C@@H]1CCN(C(=O)c2ccc(C)nc2)C1 [Example 59, N-methyl-N'-{(3R)-1-[(6-methylpyridin-3-yl)carbonyl]pyrrolidin-3-yl}-N-propylurea]",93%
5,"Cc1ccc(C(=O)N2CC[C@@H](NC(=O)NCCc3c[nH]c4ccccc34)C2)cn1 [Example 5, N-[2-(1H-indol-3-yl)ethyl]-N'-{(3R)-1-[(6-methyl-3-pyridinyl)carbonyl]-3-pyrrolidinyl}urea]",59%
6,"Cc1ccc(C(=O)N2CC[C@@H](NC(=O)NC3CCC3)C2)cn1 [Example 18, N-cyclobutyl-N'-{(3R)-1-[(6-methyl-3-pyridinyl)carbonyl]-3-pyrrolidinyl}urea]",61%
7,"CCCN(C(=O)N[C@@H]1CCN(C(=O)c2ccc(C)nc2)C1)C(C)C [Example 64, N-isopropyl-N'-{(3R)-1-[(6-methylpyridin-3-yl)carbonyl]pyrrolidin-3-yl}-N-propylurea]",70%
8,"Cc1ccc(C(=O)N2CC[C@@H](NC(=O)N3CCN(CCc4cccs4)CC3)C2)cn1 [Example 79, N-{(3R)-1-[(6-methylpyridin-3-yl)carbonyl]pyrrolidin-3-yl}-4-(2-thien-2-ylethyl)piperazine-1-carboxamide]",48%
9,"Cc1ccc(C(=O)N2CC[C@@H](NC(=O)N3CCN(Cc4ccccc4)CC3)C2)cn1 [Example 58, 4-benzyl-N-{(3R)-1-[(6-methylpyridin-3-yl)carbonyl]pyrrolidin-3-yl}piperazine-1-carboxamide]",71%
10,"COc1ccc(CCN(C)C(=O)N[C@@H]2CCN(C(=O)c3ccc(C)nc3Cl)C2)cc1OC [Example 45, N'-{(3R)-1-[(2-chloro-6-methylpyridin-3-yl)carbonyl]pyrrolidin-3-yl}-N-[2-(3,4-dimethoxyphenyl)ethyl]-N-methylurea]",82%
11,"Cc1ccc(C(=O)N2CC[C@@H](NC(=O)NCCCOC(C)C)C2)cn1 [Example 26, N-(3-isopropoxypropyl)-N'-{(3R)-1-[(6-methyl-3-pyridinyl)carbonyl]-3-pyrrolidinyl}urea]",75%
12,"Cc1ccc(C(=O)N2CC[C@@H](NC(=O)NCc3ccc(F)cc3F)C2)cn1 [Example 30, N-(2,4-difluorobenzyl)-N'-{(3R)-1-[(6-methyl-3-pyridinyl)carbonyl]-3-pyrrolidinyl}urea]",64%
13,"COCC(C)NC(=O)N[C@@H]1CCN(C(=O)c2ccc(C)nc2)C1 (stereo partly drawn) [Example 12, N-(2-methoxy-1-methylethyl)-N'-{(3R)-1-[(6-methyl-3-pyridinyl)carbonyl]-3-pyrrolidinyl}urea]",77%
14,"CCOCCN1CCN(C(=O)N[C@@H]2CCN(C(=O)c3ccc(C)nc3)C2)CC1 [Example 77, 4-(2-ethoxyethyl)-N-{(3R)-1-[(6-methylpyridin-3-yl)carbonyl]pyrrolidin-3-yl}piperazine-1-carboxamide]",58%
15,"Cc1ccc(C(=O)N2CC[C@@H](NC(=O)N(Cc3ccccc3)Cc3ccccc3)C2)c(Cl)n1 [Example 43, N,N-dibenzyl-N'-{(3R)-1-[(2-chloro-6-methylpyridin-3-yl)carbonyl]pyrrolidin-3-yl}urea]",73%
16,"CCN1CCN(C(=O)N[C@@H]2CCN(C(=O)c3ccc(C)nc3)C2)CC1 [Example 57, 4-ethyl-N-{(3R)-1-[(6-methylpyridin-3-yl)carbonyl]pyrrolidin-3-yl}piperazine-1-carboxamide]",86%
17,"Cc1ccc(C(=O)N2CC[C@@H](NC(=O)N3CCC(Cc4ccccc4)CC3)C2)c(Cl)n1 [Example 46, 4-benzyl-N-{(3R)-1-[(2-chloro-6-methylpyridin-3-yl)carbonyl]pyrrolidin-3-yl}piperidine-1-carboxamide]",99%
18,"Cc1ccc(C(=O)N2CC[C@@H](NC(=O)N3CCN(c4ccccc4)CC3)C2)cn1 [Example 89, N-{(3R)-1-[(6-methylpyridin-3-yl)carbonyl]pyrrolidin-3-yl}-4-phenylpiperazine-1-carboxamide]",62%
19,"CCOCCCNC(=O)N[C@@H]1CCN(C(=O)c2ccc(C)nc2Cl)C1 [Example 38, N-{(3R)-1-[(2-chloro-6-methylpyridin-3-yl)carbonyl]pyrrolidin-3-yl}-N'-(3-ethoxypropyl)urea]",99%
20,"Cc1ccc(C(=O)N2CC[C@@H](NC(=O)N(C)CCc3ccccn3)C2)cn1 [Example 84, N-methyl-N'-{(3R)-1-[(6-methylpyridin-3-yl)carbonyl]pyrrolidin-3-yl}-N-(2-pyridin-2-ylethyl)urea]",62%
21,"Cc1ccc(C(=O)N2CC[C@@H](NC(=O)NCC3CCOC3)C2)cn1 (stereo partly drawn) [Example 14, N-{(3R)-1-[(6-methyl-3-pyridinyl)carbonyl]-3-pyrrolidinyl}-N'-(tetrahydro-3-furanylmethyl)urea]",57%
22,"Cc1ccc(C(=O)N2CC[C@@H](NC(=O)N3CCCC3)C2)cn1 [Example 2, N-{(3R)-1-[(6-methyl-3-pyridinyl)carbonyl]-3-pyrrolidinyl}-1-pyrrolidinecarboxamide]",98%
23,"Cc1ccc(C(=O)N2CC[C@@H](NC(=O)N(C)CCc3ccccc3)C2)c(Cl)n1 [Example 44, N'-{(3R)-1-[(2-chloro-6-methylpyridin-3-yl)carbonyl]pyrrolidin-3-yl}-N-methyl-N-(2-phenylethyl)urea]",80%
24,"Cc1ccc(C(=O)N2CC[C@@H](NC(=O)NC3CCC(C)CC3)C2)cn1 (stereo partly drawn) [Example 20, N-(4-methylcyclohexyl)-N'-{(3R)-1-[(6-methyl-3-pyridinyl)carbonyl]-3-pyrrolidinyl}urea]",67%
25,"Cc1ccc(C(=O)N2CC[C@@H](NC(=O)N3CCN(C(=O)C4CCCCC4)CC3)C2)cn1 [Example 81, 4-(cyclohexylcarbonyl)-N-{(3R)-1-[(6-methylpyridin-3-yl)carbonyl]pyrrolidin-3-yl}piperazine-1-carboxamide]",55%
26,"Cc1ccc(C(=O)N2CC[C@@H](NC(=O)N3CCCCCC3)C2)cn1 [Example 70, N-{(3R)-1-[(6-methylpyridin-3-yl)carbonyl]pyrrolidin-3-yl}azepane-1-carboxamide]",97%
27,"Cc1ccc(C(=O)N2CC[C@@H](NC(=O)N[C@H](CO)CC(C)C)C2)cn1 [Example 23, N-[(1S)-1-(hydroxymethyl)-3-methylbutyl]-N'-{(3R)-1-[(6-methyl-3-pyridinyl)carbonyl]-3-pyrrolidinyl}urea]",93%
28,"Cc1ccc(C(=O)N2CC[C@@H](NC(=O)N3CCC(C(N)=O)CC3)C2)cn1 [Example 86, N^1-{(3R)-1-[(6-methylpyridin-3-yl)carbonyl]pyrrolidin-3-yl}piperidine-1,4-dicarboxamide]",74%

# Same assay, conditions: Homo sapiens; Inhibition of HMVEC migration; 1 nM; activators 15 ng/mL bFGF/VEGF; 4 hours at 37 °C; compared to a positive control
row,Compound,inhibition at 0.001 µM
1,"CCC1CCCCN1C(=O)N[C@@H]1CCN(C(=O)c2ccc(C)nc2)C1 (stereo partly drawn) [Example 68, 2-ethyl-N-{(3R)-1-[(6-methylpyridin-3-yl)carbonyl]pyrrolidin-3-yl}piperidine-1-carboxamide]",46%
2,"CCCN(C(=O)N[C@@H]1CCN(C(=O)c2ccc(C)nc2)C1)C(C)CC (stereo partly drawn) [Example 65, N-(sec-butyl)-N'-{(3R)-1-[(6-methylpyridin-3-yl)carbonyl]pyrrolidin-3-yl}-N-propylurea]",98%

# Same assay, conditions: Inhibition of HMVEC migration; 0.1 nM; activators 15 ng/mL bFGF/VEGF; 4 hours at 37 °C; compared to a positive control
row,Compound,% Inhibition @ 0.1 nM
1,"Cc1ccc(C(=O)N2CC[C@@H](NC(=O)N[C@@H](CO)c3ccccc3)C2)c(Cl)n1 [Example 37, N-{(3R)-1-[(2-chloro-6-methylpyridin-3-yl)carbonyl]pynolidin-3-yl}-N'-[(1R)-2-hydroxy-1-phenylethyl]urea]",73%
